Results: patent US20210369714A1, “Prevention and Treatment of Osteoarthritis by Inhibition of Insulin Growth Factor-1 Signaling” (The Regents of the University of California, priority 2018, published 2021)

Tested on: ATDC5 cells
Assay: IGF1 stimulated MMP-9/MMP-13 expression in chondrocytes (quantitative real-time PCR)
Format: cell-based
Conditions: preliminary dose finding experiments, free inhibitor, data not shown
Description: Here, we investigated the therapeutic role of the IGF1R inhibitor (NVP-AEW541) in PTOA development. NVP-AEW541 (IGF1Ri) was incorporated into the polyethylene glycol dimethacrylate (PEG-DMA) hydrogel carriers (microrods) for prolonged local delivery in the joint space following ACL rupture (ACLR). […] The left knee served as the control (CON). 1 day after the TCO, vehicle (Veh) or microrods loaded with inhibitor (IGF1Ri/rod) was injected into the injured knee. […] As determined by μCT, compared with the CON knee, ACLR decreased BV/TV (24%) in the subchondral bone, while the IGF1Ri/rod treatment (Tx) prevented the bone loss. […] As indicated by IHC, ACLR increased the number of PCNA positive articular chondrocytes and MMP-13 production in the Veh-treated injured knee, but these effects were blunted in the IGF1Ri-treated injured knee. Moreover, ACLR increased the production of VEGF, resulting in vessel formation within articular cartilage (as indicated by CD31) in the Veh -treated injured knee, but these effects were blocked in the IGF1Ri-treated injured knee.
FIG. 7. […] The mRNA levels of MMP-9 (upper panel) and MMP-13 (lower panel) were determined by quantitative real-time PCR. […] Results are expressed as percentage of L-19 (house keeper gene) expression (mean±SD) of triplicate determinations. *: p<0.05 IGF-1 treated cultures vs. vehicle treated cultures.

SMILES: Cl.Cl.Nc1ncnc2c1c(-c1cccc(OCc3ccccc3)c1)cn2[C@H]1C[C@@H](CN2CCC2)C1 [NVP-AEW541, 7-[cis-3-(1-azetidinylmethyl)cyclobutyl]-5-[3-(phenylmethoxy)phenyl]-7H-pyrrolo[2,3-d]pyrimidin-4-amine, dihydrochloride]
- blocking IGF1 stimulated MMP9 and MMP13 expression: highly effective
